ChEMBL document CHEMBL3774365, “Design, synthesis, pharmacological evaluation, and docking study of new acridone-based 1,2,4-oxadiazoles as potential anticonvulsant agents” (Eur J Med Chem, 2016)
The source made the active and inactive calls. No cut-off for these calls is given here.

Key:
Mus musculus [1] = experiment: Anticonvulsant activity against maximal electroshock-induced seizures in ip dosed mouse assessed as protection against hind limb tonic extension incubated for 30 mins prior to 60 Hz maximal electroshock challenge measured for 30 s; format: functional; details: Hindlimb
Mus musculus [2] = experiment: Anticonvulsant activity against pentylenetetrazole-induced seizures in ip dosed mouse incubated for 30 mins prior to pentylenetetrazole challenge measured after 30 mins; format: functional
[3] = Protective index, ratio of TD50 for ip dosed mouse neurotoxicity to ED50 for protection against 60 Hz electroshock-induced seizure in ip dosed mouse; format: toxicity, organism-based; details: in vivo, read-out: Ratio TD50/ED50
[4] = Neurotoxicity in ip dosed mouse assessed as minimal motor impairment measured for 1 min by rotarod test; format: toxicity, organism-based; details: in vivo
T47D = experiment: Cytotoxicity against human T47D cells after 48 hrs by MTT assay; format: cell-based
MDA-MB-231 = experiment: Cytotoxicity against human MDA-MB-231 cells after 48 hrs by MTT assay; format: cell-based; details: MDA-MB-231, 48 h
[5] = Protective index, ratio of TD50 for ip dosed mouse neurotoxicity to ED50 for protection against PTZ-induced seizure in ip dosed mouse; format: toxicity, organism-based; details: in vivo, read-out: Ratio TD50/ED50
MCF7 = experiment: Cytotoxicity against human MCF7 cells after 48 hrs by MTT assay; format: cell-based; details: MCF7, 48 h
Mus musculus [6] = experiment: Potency index, ratio of phenobarbital ED50 to compound ED50 for protection against maximal electroshock-induced seizures in ip dosed mouse; format: functional
Mus musculus [7] = experiment: Anticonvulsant activity against pentylenetetrazole-induced seizures in mouse at 1 to 10 mg/kg, ip incubated for 30 mins prior to PTZ challenge measured after 30 mins in presence of benzodiazepine receptor antagonist flumazenil; format: functional, organism-based

Question: For Cc1ccc2c(c1)c(=O)c1ccccc1n2Cc1nc(-c2ccc(Cl)cc2)no1, which ED50 (Mus musculus [1]) is on record?
Answer: 6.53 mg/kg

Question: What about the ED50 (Mus musculus [2]) of the same compound?
Answer: 15.2 mg/kg

Question: What about the selectivity ratio [3] of the same compound?
Answer: 72.7

Question: And the TD50 at 1 min [4]?
Answer: 475 mg/kg

Question: What about the IC50 (T47D) of the same compound?
Answer: > 50 µM

Question: What about the IC50 (MDA-MB-231) of the same compound?
Answer: > 50 µM

Question: What about the selectivity ratio [5] of the same compound?
Answer: 31.3

Question: And the IC50 (MCF7)?
Answer: > 50 µM

Question: With O=c1c2ccccc2n(Cc2nc(-c3ccc(Cl)cc3)no2)c2ccc(Cl)cc12 as the compound, how does the ED50 (Mus musculus [1]) read?
Answer: 2.64 mg/kg

Question: What about the ED50 (Mus musculus [2]) of the same compound?
Answer: 4.16 mg/kg

Question: And the selectivity ratio [3]?
Answer: 172

Question: And the TD50 at 1 min [4]?
Answer: 454 mg/kg

Question: What about the IC50 (T47D) of the same compound?
Answer: > 50 µM

Question: And the IC50 (MDA-MB-231)?
Answer: > 50 µM

Question: What about the selectivity ratio [5] of the same compound?
Answer: 109

Question: What about the IC50 (MCF7) of the same compound?
Answer: > 50 µM

Question: What about the “Ratio ED50” value (Mus musculus [6]) of the same compound?
Answer: 7

Question: With Cc1ccc(-c2noc(Cn3c4ccccc4c(=O)c4cc(C)ccc43)n2)cc1 as the compound, how does the ED50 (Mus musculus [1]) read?
Answer: 2.77 mg/kg

Question: What about the ED50 (Mus musculus [2]) of the same compound?
Answer: > 50 mg/kg

Question: What about the selectivity ratio [3] of the same compound?
Answer: 196

Question: What about the TD50 at 1 min [4] of the same compound?
Answer: 542 mg/kg

Question: What about the IC50 (T47D) of the same compound?
Answer: > 50 µM

Question: And the IC50 (MDA-MB-231)?
Answer: > 50 µM

Question: And the selectivity ratio [5]?
Answer: < 10.8

Question: What about the IC50 (MCF7) of the same compound?
Answer: > 50 µM

Question: What about the “Ratio ED50” value (Mus musculus [6]) of the same compound?
Answer: 7

Question: For CCC1(c2ccccc2)C(=O)NC(=O)NC1=O [PHENOBARBITAL], which ED50 (Mus musculus [1]) is on record?
Answer: 20.6 mg/kg

Question: What about the ED50 (Mus musculus [2]) of the same compound?
Answer: 12.4 mg/kg

Question: What about the selectivity ratio [3] of the same compound?
Answer: 3.3

Question: What about the TD50 at 1 min [4] of the same compound?
Answer: 68.9 mg/kg

Question: What about the selectivity ratio [5] of the same compound?
Answer: 5.5

Question: For Cc1ccc(-c2noc(Cn3c4ccccc4c(=O)c4cc(Br)ccc43)n2)cc1, which ED50 (Mus musculus [1]) is on record?
Answer: 5.12 mg/kg

Question: And the ED50 (Mus musculus [2])?
Answer: > 50 mg/kg

Question: What about the selectivity ratio [3] of the same compound?
Answer: 116

Question: What about the TD50 at 1 min [4] of the same compound?
Answer: 594 mg/kg

Question: What about the IC50 (T47D) of the same compound?
Answer: > 50 µM

Question: What about the IC50 (MDA-MB-231) of the same compound?
Answer: > 50 µM

Question: And the selectivity ratio [5]?
Answer: < 11.9

Question: What about the IC50 (MCF7) of the same compound?
Answer: > 50 µM

Question: For COc1ccc2c(c1)c(=O)c1ccccc1n2Cc1nc(-c2ccc(C)cc2)no1, which ED50 (Mus musculus [1]) is on record?
Answer: 3.25 mg/kg

Question: And the ED50 (Mus musculus [2])?
Answer: 6.32 mg/kg

Question: And the selectivity ratio [3]?
Answer: 160

Question: What about the TD50 at 1 min [4] of the same compound?
Answer: 522 mg/kg

Question: And the IC50 (T47D)?
Answer: > 50 µM

Question: And the IC50 (MDA-MB-231)?
Answer: > 50 µM

Question: And the selectivity ratio [5]?
Answer: 82.4

Question: What about the IC50 (MCF7) of the same compound?
Answer: > 50 µM

Question: For COc1ccc(-c2noc(Cn3c4ccccc4c(=O)c4cc(OC)ccc43)n2)cc1, which ED50 (Mus musculus [1]) is on record?
Answer: 2.42 mg/kg

Question: And the ED50 (Mus musculus [2])?
Answer: 2.12 mg/kg

Question: And the selectivity ratio [3]?
Answer: 191

Question: And the TD50 at 1 min [4]?
Answer: 462 mg/kg

Question: What about the IC50 (T47D) of the same compound?
Answer: > 50 µM

Question: What about the IC50 (MDA-MB-231) of the same compound?
Answer: > 50 µM

Question: What about the selectivity ratio [5] of the same compound?
Answer: 217

Question: And the IC50 (MCF7)?
Answer: > 50 µM

Question: What about the “Ratio ED50” value (Mus musculus [6]) of the same compound?
Answer: 7

Question: With CN1C(=O)CN=C(c2ccccc2)c2cc(Cl)ccc21 [DIAZEPAM] as the compound, how does the ED50 (Mus musculus [1]) read?
Answer: 0.98 mg/kg

Question: What about the ED50 (Mus musculus [2]) of the same compound?
Answer: 0.68 mg/kg

Question: Which ED50 (Mus musculus [1]) does the source give for COc1ccc(-c2noc(Cn3c4ccccc4c(=O)c4cc(Br)ccc43)n2)cc1 here?
Answer: 8.71 mg/kg

Question: What about the ED50 (Mus musculus [2]) of the same compound?
Answer: 6.21 mg/kg

Question: And the selectivity ratio [3]?
Answer: 54.1

Question: What about the TD50 at 1 min [4] of the same compound?
Answer: 471 mg/kg

Question: And the IC50 (T47D)?
Answer: > 50 µM

Question: And the IC50 (MDA-MB-231)?
Answer: > 50 µM

Question: And the selectivity ratio [5]?
Answer: 75.8

Question: What about the IC50 (MCF7) of the same compound?
Answer: > 50 µM

Question: With COc1ccc(-c2noc(Cn3c4ccccc4c(=O)c4cc(Cl)ccc43)n2)cc1 as the compound, how does the ED50 (Mus musculus [1]) read?
Answer: 3.71 mg/kg

Question: And the ED50 (Mus musculus [2])?
Answer: 2.08 mg/kg

Question: And the selectivity ratio [3]?
Answer: 118

Question: What about the TD50 at 1 min [4] of the same compound?
Answer: 438 mg/kg

Question: What about the IC50 (T47D) of the same compound?
Answer: > 50 µM

Question: What about the IC50 (MDA-MB-231) of the same compound?
Answer: > 50 µM

Question: What about the Activity (Mus musculus [7]) of the same compound?
Answer: inactive

Question: And the selectivity ratio [5]?
Answer: 211

Question: And the IC50 (MCF7)?
Answer: > 50 µM

Question: With COc1cc([C@@H]2c3cc4c(cc3[C@@H](O[C@@H]3O[C@@H]5CO[C@@H](C)O[C@H]5[C@H](O)[C@H]3O)[C@H]3COC(=O)[C@H]23)OCO4)cc(OC)c1O [ETOPOSIDE] as the compound, how does the IC50 (T47D) read?
Answer: 11.8 µM

Question: What about the IC50 (MDA-MB-231) of the same compound?
Answer: 15.7 µM

Question: Which ED50 (Mus musculus [1]) does the source give for O=c1c2ccccc2n(Cc2nc(-c3ccc(Cl)cc3)no2)c2ccccc12 here?
Answer: 3.57 mg/kg

Question: And the ED50 (Mus musculus [2])?
Answer: 5.78 mg/kg

Question: What about the selectivity ratio [3] of the same compound?
Answer: 148

Question: And the TD50 at 1 min [4]?
Answer: 528 mg/kg

Question: And the IC50 (T47D)?
Answer: > 50 µM

Question: And the IC50 (MDA-MB-231)?
Answer: > 50 µM

Question: What about the selectivity ratio [5] of the same compound?
Answer: 91.3

Question: And the IC50 (MCF7)?
Answer: > 50 µM

Question: For Cc1ccc(-c2noc(Cn3c4ccccc4c(=O)c4cc(Cl)ccc43)n2)cc1, which ED50 (Mus musculus [1]) is on record?
Answer: 2.24 mg/kg

Question: And the ED50 (Mus musculus [2])?
Answer: 6.25 mg/kg

Question: What about the selectivity ratio [3] of the same compound?
Answer: 216

Question: And the TD50 at 1 min [4]?
Answer: 483 mg/kg

Question: What about the IC50 (T47D) of the same compound?
Answer: > 50 µM

Question: What about the IC50 (MDA-MB-231) of the same compound?
Answer: > 50 µM

Question: And the selectivity ratio [5]?
Answer: 77.3

Question: And the IC50 (MCF7)?
Answer: > 50 µM

Question: What about the “Ratio ED50” value (Mus musculus [6]) of the same compound?
Answer: 7

Question: Which ED50 (Mus musculus [1]) does the source give for CCc1ccc2c(c1)c(=O)c1ccccc1n2Cc1nc(-c2ccc(C)cc2)no1 here?
Answer: 8.31 mg/kg

Question: What about the ED50 (Mus musculus [2]) of the same compound?
Answer: 18.9 mg/kg

Question: What about the selectivity ratio [3] of the same compound?
Answer: 59.6

Question: What about the TD50 at 1 min [4] of the same compound?
Answer: 496 mg/kg

Question: And the IC50 (T47D)?
Answer: > 50 µM

Question: And the IC50 (MDA-MB-231)?
Answer: > 50 µM

Question: And the selectivity ratio [5]?
Answer: 26.1

Question: What about the IC50 (MCF7) of the same compound?
Answer: > 50 µM

Question: Which results are given for Cc1ccc(-c2noc(Cn3c4ccccc4c(=O)c4ccccc43)n2)cc1?
Answer: ED50 (Mus musculus [1]): 2.52 mg/kg; ED50 (Mus musculus [2]): 6.37 mg/kg; selectivity ratio [3]: 214; TD50 at 1 min [4]: 538 mg/kg; IC50 (T47D): > 50 µM; IC50 (MDA-MB-231): > 50 µM; selectivity ratio [5]: 84.5; IC50 (MCF7): > 50 µM; Ratio ED50 (Mus musculus [6]): 7

Question: With O=c1c2ccccc2n(Cc2nc(-c3ccc(Cl)cc3)no2)c2ccc(Br)cc12 as the compound, how does the ED50 (Mus musculus [1]) read?
Answer: 2.87 mg/kg

Question: What about the ED50 (Mus musculus [2]) of the same compound?
Answer: 7.57 mg/kg

Question: And the selectivity ratio [3]?
Answer: 178

Question: What about the TD50 at 1 min [4] of the same compound?
Answer: 512 mg/kg

Question: And the IC50 (T47D)?
Answer: > 50 µM

Question: And the IC50 (MDA-MB-231)?
Answer: > 50 µM

Question: And the selectivity ratio [5]?
Answer: 67.6

Question: And the IC50 (MCF7)?
Answer: > 50 µM

Question: What about the “Ratio ED50” value (Mus musculus [6]) of the same compound?
Answer: 7

Question: With COc1ccc2c(c1)c(=O)c1ccccc1n2Cc1nc(-c2ccc(Cl)cc2)no1 as the compound, how does the ED50 (Mus musculus [1]) read?
Answer: 3.68 mg/kg

Question: And the ED50 (Mus musculus [2])?
Answer: 5.22 mg/kg

Question: What about the selectivity ratio [3] of the same compound?
Answer: 150

Question: And the TD50 at 1 min [4]?
Answer: 553 mg/kg

Question: And the IC50 (T47D)?
Answer: > 50 µM

Question: What about the IC50 (MDA-MB-231) of the same compound?
Answer: > 50 µM

Question: What about the selectivity ratio [5] of the same compound?
Answer: 106

Question: What about the IC50 (MCF7) of the same compound?
Answer: > 50 µM
